The values that follow come from patent US9593309B2, “Media for culturing, preserving, and administering regenerative cells” (InGeneron, Inc., priority 2012, dated 2017).

For experiment [1], the system named is Ad-MSCs (canine adipose SVF cells). Description: Ad-MSC proliferation, nucleated cell counts (Syto13) of plated adipose SVF cells. Format: cell-based. Conditions: concentration not given. On the procedure:
Assays for cell proliferation, colony forming units (CFU), gene expression analyses, cell surface markers, and chondrogenic and osteogenic differentiation were performed. Cell growth and Colony Forming Units (CFU) were grown in monolayer on tissue culture grade plastic in alpha MEM, 20% FBS (v/v), pen/strep. Nucleated cell counts were performed by staining with Syto13 (Invitrogen) followed by hemacytometer counting under fluorescence microscopy. Gene expression analysis was performed by quantitative RT-PCR profiling, BioRad iQ. Flow Activated Cell Storing (FACS) analyses were performed at M.D. Anderson Cancer Center FACS Core Facilities, Houston, Tex. by GALLIOS Flow Cytometry Instruments (Beckman Coulter). […]
Media was changed at days 3 and 6. Nucleated cell counts were performed by Syto13 staining followed by hemacytometer counting under fluorescence microscopy (FIG. 1B).
Fresh canine adipose SVF cells were plated at equal nucleated cell density and grown for 7 days in culture on tissue culture plastic in the presence of complete growth media and the respective concentrations (v/v) of GAG formulation. Nucleated cell counts were performed by Syto13 staining followed by hemacytometer counting under fluorescence microscopy. […]

The subject of the next experiment is Sox2. The experiment in a line: Sox2 mRNA level in cultured Ad-MSCs, normalized to β-Actin. The settings on record: 5% (v/v) formulation, 6 days culture, vs other GAG formulations. The experiment is classed as cell-based, canine. The method, then:
Assays for cell proliferation, colony forming units (CFU), gene expression analyses, cell surface markers, and chondrogenic and osteogenic differentiation were performed. Cell growth and Colony Forming Units (CFU) were grown in monolayer on tissue culture grade plastic in alpha MEM, 20% FBS (v/v), pen/strep. Nucleated cell counts were performed by staining with Syto13 (Invitrogen) followed by hemacytometer counting under fluorescence microscopy. Gene expression analysis was performed by quantitative RT-PCR profiling, BioRad iQ. Flow Activated Cell Storing (FACS) analyses were performed at M.D. Anderson Cancer Center FACS Core Facilities, Houston, Tex. by GALLIOS Flow Cytometry Instruments (Beckman Coulter). For osteogenic and chondrogenic differentiation, cells were cultured in STEMPRO induction media (Invitrogen, Carlsbad, Calif.) for 14 days, fixed in 4% formalin, and stained with Alzarin red and Alcian Blue, respectively. Statistical analyses were performed by ANOVA.
Canine Ad-MSCs were grown for 6 days in culture in the presence of complete growth media and the respective 5% (v/v) GAG formulations. Magnification=100×. Sox2 levels, a marker of stem cell proliferation, were measured in total RNA samples and normalized to β-Actin mRNA. Here “GAG” represents poly-sulfated glycosaminoglycan (ADEQUAN).

For hyaluronic acid [HA], the “effect on cell proliferation when added to culture media” value in experiment [1] is “pro-mitotic, but to a lesser magnitude”. Further, the Sox2 levels result in the experiment with Sox2 is “qualitatively similar, but of lesser magnitude”.
